Laboratory results taken from PMC11407783 (Nature cell biology, 2023).

Biological target: KDM3B (Homo sapiens, UniProt Q7LBC6)
Assay: competitive inhibition of purified recombinant KDM3B
Assay type: biochemical

Chain of KDM3B (Q7LBC6 whole entry): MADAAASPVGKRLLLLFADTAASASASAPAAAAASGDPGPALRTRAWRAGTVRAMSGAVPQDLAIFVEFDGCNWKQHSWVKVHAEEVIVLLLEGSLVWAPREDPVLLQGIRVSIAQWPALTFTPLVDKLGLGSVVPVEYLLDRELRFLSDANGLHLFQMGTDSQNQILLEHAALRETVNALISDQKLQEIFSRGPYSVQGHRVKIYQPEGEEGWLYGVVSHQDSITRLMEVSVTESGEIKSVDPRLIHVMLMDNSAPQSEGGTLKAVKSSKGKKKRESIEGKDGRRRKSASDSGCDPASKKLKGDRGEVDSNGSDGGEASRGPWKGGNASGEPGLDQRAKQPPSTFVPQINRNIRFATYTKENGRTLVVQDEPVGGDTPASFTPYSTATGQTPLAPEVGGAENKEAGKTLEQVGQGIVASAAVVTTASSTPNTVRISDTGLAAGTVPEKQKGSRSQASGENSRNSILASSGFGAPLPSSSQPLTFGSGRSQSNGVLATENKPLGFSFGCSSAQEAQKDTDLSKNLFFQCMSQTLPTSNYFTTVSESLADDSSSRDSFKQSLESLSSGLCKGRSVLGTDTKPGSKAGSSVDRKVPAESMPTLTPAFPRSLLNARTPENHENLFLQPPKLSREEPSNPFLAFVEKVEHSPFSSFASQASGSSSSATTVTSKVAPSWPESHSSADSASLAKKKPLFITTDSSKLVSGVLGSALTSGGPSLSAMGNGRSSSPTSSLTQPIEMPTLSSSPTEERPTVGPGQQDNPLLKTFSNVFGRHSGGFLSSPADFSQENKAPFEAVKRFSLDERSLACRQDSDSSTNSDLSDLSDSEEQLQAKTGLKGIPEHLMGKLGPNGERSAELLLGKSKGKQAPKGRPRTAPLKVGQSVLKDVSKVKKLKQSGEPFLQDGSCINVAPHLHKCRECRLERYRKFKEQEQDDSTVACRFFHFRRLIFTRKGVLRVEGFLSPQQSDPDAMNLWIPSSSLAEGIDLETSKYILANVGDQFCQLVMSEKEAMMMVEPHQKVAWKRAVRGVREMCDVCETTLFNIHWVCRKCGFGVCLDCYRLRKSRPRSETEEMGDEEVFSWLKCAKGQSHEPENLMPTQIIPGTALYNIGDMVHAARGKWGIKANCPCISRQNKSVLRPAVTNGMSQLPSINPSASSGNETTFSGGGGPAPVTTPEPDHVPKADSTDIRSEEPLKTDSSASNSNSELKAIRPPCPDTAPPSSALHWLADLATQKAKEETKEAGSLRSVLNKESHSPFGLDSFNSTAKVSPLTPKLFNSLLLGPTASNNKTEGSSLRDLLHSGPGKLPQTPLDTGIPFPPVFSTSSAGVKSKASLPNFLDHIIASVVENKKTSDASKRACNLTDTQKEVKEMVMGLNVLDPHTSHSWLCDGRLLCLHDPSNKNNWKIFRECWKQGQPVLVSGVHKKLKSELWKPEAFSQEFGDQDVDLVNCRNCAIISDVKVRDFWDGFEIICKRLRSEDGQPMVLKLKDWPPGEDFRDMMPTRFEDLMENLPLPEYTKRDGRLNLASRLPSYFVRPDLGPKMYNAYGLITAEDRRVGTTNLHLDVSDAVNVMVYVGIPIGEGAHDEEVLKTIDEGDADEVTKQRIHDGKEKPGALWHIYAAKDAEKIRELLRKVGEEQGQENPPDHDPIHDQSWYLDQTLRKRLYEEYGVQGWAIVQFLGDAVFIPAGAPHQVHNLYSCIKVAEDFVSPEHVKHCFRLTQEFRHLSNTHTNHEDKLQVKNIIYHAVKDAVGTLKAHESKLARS

IC50: ~2460 µM
SMILES: O=C(O)CCC(O)C(=O)O (stereo not shown) [R-2HG]
